Source: PubChem BioAssay (NCI)
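Exposure lasted 48 hours, with cells grown in 96-well plates and compounds tested at five concentrations. The concentration for full growth arrest is given as TGI.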

What was measured:
Assay in all cases: inhibition of tumour cell growth, NCI panel, 48 h
786-0 renal = tested on: 786-0 renal
A498 renal = tested on: A498 renal
A549 NSCLC = tested on: A549 NSCLC
ACHN renal = tested on: ACHN renal
BT-549 breast = tested on: BT-549 breast
CAKI-1 renal = tested on: CAKI-1 renal
COLO 205 colon = tested on: COLO 205 colon
DU-145 prostate = tested on: DU-145 prostate
EKVX NSCLC = tested on: EKVX NSCLC
HCC-2998 colon = tested on: HCC-2998 colon
HCT-116 colon = tested on: HCT-116 colon
HCT-15 colon = tested on: HCT-15 colon
HL-60(TB) leukemia = tested on: HL-60(TB) leukemia
HOP-62 NSCLC = tested on: HOP-62 NSCLC
HOP-92 NSCLC = tested on: HOP-92 NSCLC
HS 578T breast = tested on: HS 578T breast
HT29 colon = tested on: HT29 colon
IGROV1 ovarian = tested on: IGROV1 ovarian
K-562 leukemia = tested on: K-562 leukemia
LOX IMVI melanoma = tested on: LOX IMVI melanoma
M14 melanoma = tested on: M14 melanoma
MALME-3M melanoma = tested on: MALME-3M melanoma
MCF7 breast = tested on: MCF7 breast
MDA-MB-231 breast = tested on: MDA-MB-231 breast
MDA-MB-435 = tested on: MDA-MB-435
MDA-N = tested on: MDA-N
NCI-H226 lung = tested on: NCI-H226 lung
NCI-H23 lung = tested on: NCI-H23 lung
NCI-H460 lung = tested on: NCI-H460 lung
NCI-H522 lung = tested on: NCI-H522 lung
NCI/ADR-RES ovarian = tested on: NCI/ADR-RES ovarian
OVCAR-3 ovarian = tested on: OVCAR-3 ovarian
OVCAR-4 ovarian = tested on: OVCAR-4 ovarian
OVCAR-5 ovarian = tested on: OVCAR-5 ovarian
OVCAR-8 ovarian = tested on: OVCAR-8 ovarian
PC-3 prostate = tested on: PC-3 prostate
RPMI-8226 leukemia = tested on: RPMI-8226 leukemia
RXF 393 renal = tested on: RXF 393 renal
SF-268 CNS = tested on: SF-268 CNS
SF-295 CNS = tested on: SF-295 CNS
SF-539 CNS = tested on: SF-539 CNS
SK-MEL-2 melanoma = tested on: SK-MEL-2 melanoma
SK-MEL-28 melanoma = tested on: SK-MEL-28 melanoma
SK-MEL-5 melanoma = tested on: SK-MEL-5 melanoma
SK-OV-3 ovarian = tested on: SK-OV-3 ovarian
SN12C renal = tested on: SN12C renal
SNB-19 CNS = tested on: SNB-19 CNS
SNB-75 CNS = tested on: SNB-75 CNS
SR leukemia = tested on: SR leukemia
SW-620 colon = tested on: SW-620 colon
TK-10 renal = tested on: TK-10 renal
U251 CNS = tested on: U251 CNS
UACC-257 melanoma = tested on: UACC-257 melanoma
UACC-62 melanoma = tested on: UACC-62 melanoma
UO-31 renal = tested on: UO-31 renal
CCRF-CEM leukemia = tested on: CCRF-CEM leukemia
KM12 colon = tested on: KM12 colon
MOLT-4 leukemia = tested on: MOLT-4 leukemia
T-47D breast = tested on: T-47D breast

COc1ccc(NC(=S)Nc2ccccc2)cc1
TGI (786-0 renal): > 100 µM
TGI (A498 renal): > 100 µM
TGI (A549 NSCLC): > 100 µM
TGI (ACHN renal): > 100 µM
TGI (BT-549 breast): > 100 µM
TGI (CAKI-1 renal): > 100 µM
TGI (COLO 205 colon): > 100 µM
TGI (DU-145 prostate): > 100 µM
TGI (EKVX NSCLC): > 100 µM
TGI (HCC-2998 colon): > 100 µM
TGI (HCT-116 colon): > 100 µM
TGI (HCT-15 colon): > 100 µM
TGI (HL-60(TB) leukemia): > 100 µM
TGI (HOP-62 NSCLC): > 100 µM
TGI (HOP-92 NSCLC): > 100 µM
TGI (HS 578T breast): > 100 µM
TGI (HT29 colon): > 100 µM
TGI (IGROV1 ovarian): > 100 µM
TGI (K-562 leukemia): > 100 µM
TGI (LOX IMVI melanoma): > 100 µM
TGI (M14 melanoma): > 100 µM
TGI (MALME-3M melanoma): > 100 µM
TGI (MCF7 breast): > 100 µM
TGI (MDA-MB-231 breast): > 100 µM
TGI (MDA-MB-435): > 100 µM
TGI (MDA-N): > 100 µM
TGI (NCI-H226 lung): > 100 µM
TGI (NCI-H23 lung): > 100 µM
TGI (NCI-H460 lung): > 100 µM
TGI (NCI-H522 lung): > 100 µM
TGI (NCI/ADR-RES ovarian): > 100 µM
TGI (OVCAR-3 ovarian): > 100 µM
TGI (OVCAR-4 ovarian): > 100 µM
TGI (OVCAR-5 ovarian): > 100 µM
TGI (OVCAR-8 ovarian): > 100 µM
TGI (PC-3 prostate): > 100 µM
TGI (RPMI-8226 leukemia): > 100 µM
TGI (RXF 393 renal): > 100 µM
TGI (SF-268 CNS): > 100 µM
TGI (SF-295 CNS): > 100 µM
TGI (SF-539 CNS): > 100 µM
TGI (SK-MEL-2 melanoma): > 100 µM
TGI (SK-MEL-28 melanoma): > 100 µM
TGI (SK-MEL-5 melanoma): > 100 µM
TGI (SK-OV-3 ovarian): > 100 µM
TGI (SN12C renal): > 100 µM
TGI (SNB-19 CNS): > 100 µM
TGI (SNB-75 CNS): > 100 µM
TGI (SR leukemia): > 100 µM
TGI (SW-620 colon): > 100 µM
TGI (TK-10 renal): > 100 µM
TGI (U251 CNS): > 100 µM
TGI (UACC-257 melanoma): > 100 µM
TGI (UACC-62 melanoma): > 100 µM
TGI (UO-31 renal): > 100 µM

CCOC(=O)CO/N=C\C1=CC(=O)C2CC1C2(C)C (stereo not given)
TGI (786-0 renal): > 100 µM
TGI (A498 renal): > 100 µM
TGI (ACHN renal): > 100 µM
TGI (BT-549 breast): > 100 µM
TGI (CAKI-1 renal): > 100 µM
TGI (CCRF-CEM leukemia): > 100 µM
TGI (COLO 205 colon): > 100 µM
TGI (DU-145 prostate): > 100 µM
TGI (EKVX NSCLC): > 100 µM
TGI (HCT-116 colon): > 100 µM
TGI (HCT-15 colon): > 100 µM
TGI (HL-60(TB) leukemia): > 100 µM
TGI (HS 578T breast): > 100 µM
TGI (HT29 colon): > 100 µM
TGI (IGROV1 ovarian): > 100 µM
TGI (K-562 leukemia): > 100 µM
TGI (KM12 colon): > 100 µM
TGI (LOX IMVI melanoma): > 100 µM
TGI (M14 melanoma): > 100 µM
TGI (MALME-3M melanoma): > 100 µM
TGI (MCF7 breast): > 100 µM
TGI (MDA-MB-231 breast): > 100 µM
TGI (MDA-MB-435): > 100 µM
TGI (MDA-N): > 100 µM
TGI (MOLT-4 leukemia): > 100 µM
TGI (NCI-H226 lung): > 100 µM
TGI (NCI-H23 lung): > 100 µM
TGI (NCI/ADR-RES ovarian): > 100 µM
TGI (OVCAR-3 ovarian): > 100 µM
TGI (OVCAR-5 ovarian): > 100 µM
TGI (OVCAR-8 ovarian): > 100 µM
TGI (PC-3 prostate): > 100 µM
TGI (RPMI-8226 leukemia): > 100 µM
TGI (RXF 393 renal): > 100 µM
TGI (SF-268 CNS): > 100 µM
TGI (SF-295 CNS): > 100 µM
TGI (SF-539 CNS): > 100 µM
TGI (SK-MEL-2 melanoma): > 100 µM
TGI (SK-MEL-28 melanoma): > 100 µM
TGI (SK-MEL-5 melanoma): > 100 µM
TGI (SN12C renal): > 100 µM
TGI (SNB-19 CNS): > 100 µM
TGI (SNB-75 CNS): > 100 µM
TGI (SW-620 colon): > 100 µM
TGI (T-47D breast): > 100 µM
TGI (TK-10 renal): > 100 µM
TGI (U251 CNS): > 100 µM
TGI (UACC-257 melanoma): > 100 µM
TGI (UACC-62 melanoma): > 100 µM
TGI (UO-31 renal): > 100 µM

COc1ccc(/C=C/c2cc(OC)c(OC)c(OC)c2)cc1O[Si](C)(C)C(C)(C)C
TGI (786-0 renal): 30.7 µM
TGI (A498 renal): 94.1 µM
TGI (A549 NSCLC): > 100 µM
TGI (ACHN renal): 34 µM
TGI (BT-549 breast): 64 µM
TGI (CAKI-1 renal): > 100 µM
TGI (COLO 205 colon): 32.7 µM
TGI (DU-145 prostate): > 100 µM
TGI (EKVX NSCLC): > 100 µM
TGI (HCC-2998 colon): > 100 µM
TGI (HCT-116 colon): 14.2 µM
TGI (HCT-15 colon): 21.7 µM
TGI (HOP-62 NSCLC): > 100 µM
TGI (HOP-92 NSCLC): 85.4 µM
TGI (HS 578T breast): 8.18 µM
TGI (HT29 colon): > 100 µM
TGI (IGROV1 ovarian): > 100 µM
TGI (M14 melanoma): 29.3 µM
TGI (MCF7 breast): 25.6 µM
TGI (MDA-MB-231 breast): > 100 µM
TGI (MDA-MB-435): 5.86 µM
TGI (MDA-N): 6.25 µM
TGI (MOLT-4 leukemia): 22.2 µM
TGI (NCI-H226 lung): 47.7 µM
TGI (NCI-H23 lung): > 100 µM
TGI (NCI-H460 lung): 13.4 µM
TGI (NCI-H522 lung): 8.08 µM
TGI (OVCAR-4 ovarian): > 100 µM
TGI (OVCAR-5 ovarian): > 100 µM
TGI (OVCAR-8 ovarian): 10.8 µM
TGI (PC-3 prostate): > 100 µM
TGI (RPMI-8226 leukemia): 3.68 µM
TGI (RXF 393 renal): 9.02 µM
TGI (SF-268 CNS): > 100 µM
TGI (SF-295 CNS): 83.8 µM
TGI (SF-539 CNS): 5.71 µM
TGI (SK-MEL-2 melanoma): > 100 µM
TGI (SK-MEL-28 melanoma): > 100 µM
TGI (SK-MEL-5 melanoma): 4.44 µM
TGI (SK-OV-3 ovarian): > 100 µM
TGI (SN12C renal): 74.5 µM
TGI (SNB-19 CNS): > 100 µM
TGI (SNB-75 CNS): > 100 µM
TGI (SW-620 colon): 17.3 µM
TGI (T-47D breast): > 100 µM
TGI (TK-10 renal): > 100 µM
TGI (U251 CNS): 26.6 µM
TGI (UACC-257 melanoma): 37.3 µM
TGI (UACC-62 melanoma): 14.1 µM
TGI (UO-31 renal): > 100 µM
